pIC50: −log10 of the molar value.
Legend:
[1] = Fraction unbound in plasma concentration ratio in C57BL/6 mouse at 0.05 mg/kg, iv; type: ADME, organism-based
[2] = Tmax in Rhesus macaque brain treated bolus injected into sural vein for 5 secs measured 30 to 120 mins by PET analysis; type: ADME, organism-based, Macaca mulatta; details: rhesus monkey, in vivo, iv; time 30-120 min
[3] = Fraction unbound in mouse brain homogenate at 5 uM incubated for 6 hrs shaking at 250 rpm by LC-MS/MS analysis; type: ADME, tissue-based
[4] = AUC in Rhesus macaque brain to plasma ratio treated bolus injected into sural vein for 5 secs measured 30 to 120 mins by PET analysis; type: ADME, organism-based, Macaca mulatta; details: rhesus monkey, iv, time 30-120 min
[5] = Cmax in Cynomolgus macaque brain treated bolus injected into sural vein for 5 secs measured 30 to 120 mins by PET analysis; type: ADME, organism-based, Macaca fascicularis; design: time upper 120 min, time lower 30 min; details: cynomolgus monkey, in vivo, iv
[6] = Apparent permeability in MDCK cells; type: ADME, cell-based, Canis lupus familiaris; details: dog
[7] = Stability in human plasma assessed as half life; type: ADME, cell-free
[8] = tested on: BCRP; test: Efflux ratio of apparent permeability in MDCK cells expressing human BCRP; type: ADME, cell-based, Canis lupus familiaris; details: dog
[9] = Cmax in C57BL/6 mouse brain at 0.05 mg/kg, iv; type: ADME, organism-based; design: route intravenous, dose 0.05 mg/kg
[10] = Half life in mouse liver microsomes; type: ADME, Microsome
[11] = tested on: MDR1; test: Efflux ratio of apparent permeability in MDCK cells expressing human MDR1; type: ADME, cell-based, Canis lupus familiaris; details: dog
[12] = Tmax in Cynomolgus macaque brain treated bolus injected into sural vein for 5 secs by PET analysis; type: ADME, organism-based, Macaca fascicularis; details: cynomolgus monkey, in vivo, iv, 5 s; time 5 sec
[13] = Cmax in Rhesus macaque brain treated bolus injected into sural vein for 5 secs measured 30 to 120 mins by PET analysis; type: ADME, organism-based, Macaca mulatta; design: time upper 120 min, time lower 30 min; details: rhesus monkey, in vivo, iv
[14] = Half life in cynomolgus monkey liver microsomes; type: ADME, Macaca fascicularis, Microsome
[15] = Stability in mouse plasma assessed as half life; type: ADME, cell-free
[16] = Fraction unbound in brain concentration ratio in C57BL/6 mouse at 0.05 mg/kg, iv; type: ADME, organism-based
[17] = AUC (5 to 60 min) in C57BL/6 mouse brain at 0.05 mg/kg, iv; type: ADME, organism-based; design: dose 0.05 mg/kg
[18] = AUC in Cynomolgus macaque brain to plasma ratio treated bolus injected into sural vein for 5 secs measured 30 to 120 mins by PET analysis; type: ADME, organism-based, Macaca fascicularis; details: cynomolgus monkey, iv, time 30-120 min
[19] = Displacement of [3]10-methoxy-N-(pyridin-3-yl-7-thia-2,5-diazatricyclo(6.4.0.0 2.6)-dodeca-1(12),3,5,8,10-pentaene-4-carboxamide from polyglutamine Q46 aggregate (unknown origin) by radio ligand binding assay; design: species or system Homo sapiens; details: for pIC50: read-out: IC50
[20] = Half life in human liver microsomes; type: ADME, Microsome
[21] = Unbound brain-to-plasma concentration ratio in C57BL/6 mouse at 0.05 mg/kg, iv; type: ADME, organism-based; details: brain and plasma, read-out: K(p,uu,brain)
[22] = target: Amyloid-beta precursor protein (Homo sapiens) (UniProt P05067); test: Displacement of [3]10-methoxy-N-(pyridin-3-yl-7-thia-2,5-diazatricyclo(6.4.0.0 2.6)-dodeca-1(12),3,5,8,10-pentaene-4-carboxamide from human Amyloid beta plaques using AD postmortem patient brain homogenates at 1 uM incubated for 2 hr by radio ligand binding assay relative to control; type: tissue-based
[23] = Drug metabolism in C57BL/6 mouse plasma assessed as oxidative metabolite M2a at 0.05 mg/kg, iv; type: ADME, organism-based; details: in vivo
[24] = Drug metabolism in C57BL/6 mouse brain assessed as oxidative metabolite M2a at 0.05 mg/kg, iv; type: ADME, organism-based; details: in vivo

Chain of Amyloid-beta precursor protein (Homo sapiens) (P05067 whole entry): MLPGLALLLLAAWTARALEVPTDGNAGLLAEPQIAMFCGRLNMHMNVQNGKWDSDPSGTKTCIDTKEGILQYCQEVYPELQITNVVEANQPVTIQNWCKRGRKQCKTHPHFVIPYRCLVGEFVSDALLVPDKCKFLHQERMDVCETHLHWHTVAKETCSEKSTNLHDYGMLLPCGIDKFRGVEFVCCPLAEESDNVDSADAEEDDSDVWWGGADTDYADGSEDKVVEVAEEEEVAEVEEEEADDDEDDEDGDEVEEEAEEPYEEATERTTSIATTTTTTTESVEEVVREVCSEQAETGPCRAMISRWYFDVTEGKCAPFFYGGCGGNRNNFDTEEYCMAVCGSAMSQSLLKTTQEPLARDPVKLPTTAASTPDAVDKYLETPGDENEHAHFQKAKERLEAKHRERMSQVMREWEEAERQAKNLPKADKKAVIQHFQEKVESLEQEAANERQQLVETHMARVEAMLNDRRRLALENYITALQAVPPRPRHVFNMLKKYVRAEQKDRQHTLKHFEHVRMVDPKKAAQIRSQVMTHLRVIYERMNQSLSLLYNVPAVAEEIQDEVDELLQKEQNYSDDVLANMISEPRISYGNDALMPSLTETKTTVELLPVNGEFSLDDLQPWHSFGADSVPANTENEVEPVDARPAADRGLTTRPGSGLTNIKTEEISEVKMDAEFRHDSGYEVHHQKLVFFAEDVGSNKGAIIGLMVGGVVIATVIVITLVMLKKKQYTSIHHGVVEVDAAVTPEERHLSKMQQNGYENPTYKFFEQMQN

Structure (SMILES)	fraction unbound at 6 h, 5 µM [3]	pIC50 [19]	Activity [22]	further results
[11CH3]Oc1ccc(NC(=O)c2ccn3c(n2)nc2ccccc23)cn1	0.11	8.44	–	fraction unbound [1]: 0.09; Tmax [2]: 0.8 min; Ratio AUC [4]: 0.9; Cmax [5]: 3.5 %ID; Papp [6]: 9.4 ×10⁻⁶ cm/s; half-life [7]: 127 min; efflux ratio [8]: 0.9; Cmax [9]: 21 nM; half-life [10]: 8 min; efflux ratio [11]: 0.5; Tmax [12]: 0.8 min; Cmax [13]: 3.2 %ID; half-life [14]: 1 min; half-life [15]: 100 min; fraction unbound [16]: 0.11; AUC(0-t) [17]: 3 nM·h; Ratio AUC [18]: 0.3; half-life [20]: 8 min; Kp uu [21]: 0.9
COc1ccc2c(c1)nc1nc(C(=O)NC3CCCc4cccnc43)ccn12 (configuration not stated)	0.17	7.32	8%	–
COc1ccc(NC(=O)c2ccc3c(c2)nc2ncccn23)cn1	0.38	7.16	–	efflux ratio [8]: 25; efflux ratio [11]: 0.6
COc1ccc2c(c1)nc1nc(C(=O)N3Cc4cccnc4C3)ccn12	0.32	8.39	0%	–
COc1ccc(COc2ccc3oc(-c4ccc(=O)n(C)n4)nc3c2)nc1	–	–	–	Cmax [9]: 124 nM; AUC(0-t) [17]: 65 nM·h
COc1ccc2c(c1)nc1nc(C(=O)Nc3cnc(C)c(C)c3)ccn12	–	–	–	Fu ([3]; 6 h, 5 µM): Nd(Insoluble); IC50 [19]: Nd(Insoluble)
Cn1cc(NC(=O)c2ccn3c(n2)nc2ccccc23)ccc1=O	0.46	7.59	–	–
COc1ccc(NC(=O)c2ccc3c(n2)oc2ccncc23)cn1	0.06	8.48	–	–
COc1ccc2c(c1)nc1nc(C(=O)N3CC(N4CCOCC4)C3)ccn12	–	6.40	–	–
COc1ncc(NC(=O)c2ccn3c(n2)nc2ccccc23)cc1C	0.03	8.55	-29%	–
COc1ccc(NC(=O)c2ccnc(Nc3ccncc3)n2)cn1	0.02	8.28	–	–
COc1ccc2c(c1)nc1nc(C(=O)NC3CC3)ccn12	0.24	6.45	–	–
O=C(Nc1ccccn1)c1ccn2c(n1)nc1ccccc12	0.29	8.08	24%	–
COc1ccc(NC(=O)c2ccc3c4cnccc4n(C(=O)OC(C)(C)C)c3n2)cn1	0.03	8.55	–	efflux ratio [8]: > 7.3; efflux ratio [11]: 2
COc1cncc(NC(=O)c2ccn3c(n2)nc2cc(OC)ccc23)c1	0.15	8.68	5%	–
COc1ccc2c(c1)nc1nc(C(=O)Nc3ccncn3)ccn12	0.23	8.04	30%	–
Cn1nc(NC(=O)c2ccn3c(n2)nc2ccccc23)ccc1=O	0.37	7.80	12%	–
CN(C(=O)c1ccn2c(n1)nc1ccccc12)c1ccc(=O)[nH]c1	0.51	< 6.00	–	–

More lines, main results first:

fraction unbound at 6 h, 5 µM [3]	pIC50 [19]	Activity [22]	Structure (SMILES)	further results
0.21	8.46	25%	COc1cncc(NC(=O)c2ccn3c(n2)nc2ccccc23)c1	fraction unbound [1]: 0.07; Papp [6]: 12.5 ×10⁻⁶ cm/s; half-life [7]: > 480 min; Drug metabolism [23]: Metabolite_Detected; efflux ratio [8]: 2.7; Cmax [9]: 17 nM; Drug metabolism [24]: Metabolite_Detected; half-life [10]: 4 min; efflux ratio [11]: 0.8; half-life [14]: 4 min; half-life [15]: 215 min; fraction unbound [16]: 0.21; AUC(0-t) [17]: 2 nM·h; half-life [20]: 12 min; Kp uu [21]: 1
0.22	7.14	–	C#CCCCNC(=O)c1ccn2c(n1)nc1cc(OC)ccc12	–
0.16	8.80	–	COc1ccc(C(=O)Nc2ccn3c(n2)nc2ccccc23)cn1	efflux ratio [8]: 2.1; efflux ratio [11]: 0.5
0.25	7.92	–	COc1ccc2c(c1)nc1nc(C(=O)Nc3ccc(=O)n(C)n3)ccn12	–
0.1	8.24	21%	COc1cc(NC(=O)c2ccn3c(n2)nc2ccccc23)cnc1OC	–
0.54	7.77	–	COc1ccc2c(c1)nc1nc(C(=O)Nc3cccnn3)ccn12	–
0.64	7.35	–	O=C(Nc1ccc(=O)[nH]c1)c1ccn2c(n1)nc1ccccc12	–
0.1	8.64	13%	COc1ccc2c(c1)nc1nc(C(=O)Nc3ccc(OC)nc3)ccn12	–
–	8.24	130%	CNc1ccc(-c2cn3c(n2)sc2cc(OCCF)ccc23)cc1	–
0.21	7.41	-12%	O=C(Nc1cccnc1)c1ccn2c(n1)nc1ccccc12	–
0.03	8.37	100%	COc1ccc2c(c1)sc1nc(C(=O)Nc3cccnc3)cn12	–
0.15	8.00	17%	COc1ccc2c(c1)nc1nc(C(=O)Nc3cccnc3)ccn12	–
0.08	7.27	–	COc1ccc(COc2ccn3c(n2)nc2ccccc23)cn1	efflux ratio [8]: 0.5; efflux ratio [11]: 0.5
0.12	< 6.48	34%	FCCC1CCN(c2ccn3c(n2)nc2ccccc23)CC1	–
0.04	8.89	–	COc1ccc(NC(=O)c2ccc3c4cnccc4n(C)c3n2)cn1	–
0.18	8.17	41%	COc1ccc2c(c1)nc1nc(C(=O)Nc3ccccn3)ccn12	–
0.7	6.52	–	Cn1cc(NC(=O)c2ccn3c(n2)nc2ccccc23)cnc1=O	–
–	7.32	–	COc1ccc(COc2ccn3c(n2)nc2ccccc23)nc1	efflux ratio [8]: 1.3; efflux ratio [11]: 0.5
0.02	8.85	21%	Cc1cc(NC(=O)c2ccn3c(n2)nc2ccccc23)cnc1C	–
